The nature of data set [1]: Free base competitive slurries / form conversion (XRPD and DSC). The format is physicochemical. The note with it: compound 1 free base, stirred in methanol at room temperature for 24 hours. As to the method:
Free Base Competitive Slurries:
Three competitive slurry experiments were performed:
1: Form A (20.0 mg)+Form C (20.4 mg) in 0.4 ml ethyl acetate
2: Form B (15.7 mg)+Form C (15.6 mg) in 0.3 ml ethyl acetate
3: Form A (13.3 mg)+Form B (11.5 mg) in 0.3 ml ethyl acetate
The three slurries were stirred vigorously for three days. Solids were then filtered and dried.
About 20 mg Form C was stirred in methanol (˜2 mL) at room temperature for 24 hours. Solids were filtered and dried.

Data set [2] is described as follows: Single oral dose pharmacokinetic (PK) study in dogs, fasted and fed. The note with it: 15 mg/kg oral suspension; for AUC(0-t) / Cmax: both sexes, dog, in vivo, po, 15 mg/kg. The format is in vivo. As to the method:
The pharmacokinetics of compound 1 (free base, administered to dosing group 1), compound 2 (phosphate salt, administered to dosing group 4), compound 4 (hydrochloride salt, administered to dosing group 2), compound 5 (bromide salt, administered to dosing group 5), and compound 6 (sulfate salt, administered to dosing group 3) were evaluated in dogs (2/sex/group) in a parallel design study. In addition, the effect of food on the systemic exposure to compounds 1, 2, 4, 5 and 6 was also evaluated. Compounds 1, 2, 4, 5 and 6 were orally administered at 15 mg/kg to dogs in a fasted state (overnight fast) on day 1 and administered under fed conditions (a meal was provided one hour prior to dosing) on day 9. Doses were administered as a suspension in 5% Captisol/0.2% Tween 80/0.05M Citrate buffer (compound 1) and 5% Captisol/0.2% Tween (compounds 2, 4, 5 and 6). Animals were habituated (days 2 to 8) to consume their entire daily ration (˜400 g) in 1 hour. Pharmacokinetic samples were collected on days 1 and 9 at 0, 0.5, 1, 2, 4, 6, 8, 12, and 24 hours after dosing.

Data set [3] relates to one or both of ERK1 and ERK2 kinases. The following applies: see Table A of the '230 publication; cited from earlier work.
Data set [4] can be described thus: Solubility in water at ambient temperature. The data set is classed as physicochemical. The following applies: for pH at 48 hrs: pH of the solubility sample in water at 48 hrs; for Conc. (μg/mL) at 24 hours / Conc. (μg/mL) at 48 hours: water, ambient temperature, free base-equivalent value, HPLC/UV; for Conc. (μg/mL) at 24 hours: shaken 24 hours; for Conc. (μg/mL) at 48 hours: shaken 48 hours. Here is the method: Each of compounds 1 through 9 were weighed into separate 8 mL clear glass vials. After addition of 3.2 mL of water, the vials were capped and shaken on an orbital shaker at 300 RPM at ambient temperature for 24 hours. The samples were removed from the shaker and the pH of each was measured using a calibrated pH meter. Next, a portion of the each sample was withdrawn and filtered using a PVDF-membrane syringe filter. The filtrate was analyzed using HPLC/UV with appropriate dilution. The solubility was reported as free base-equivalent value because the free base was used as the standard for HPLC analysis. The rest of the samples were shaken for another 24 hours for 48-hour solubility measurement using the same procedure. After the 48-hour solubility tests were run, the solid residues were recovered through filtration using 0.2 μm Nylon-membrane centrifuge tube filters at 14000 RPM for 5 min and analyzed using XRPD.
For the bis-phosphate complex and bis-sulfate salt, measurements were only performed at the 24-hour time point.

Data set [5] is described as follows: Hygroscopicity by Dynamic Vapor Sorption (DVS). The format is physicochemical. The following applies: at 95% relative humidity. Here is the method:
Hygroscopicity was determined on a Surface Measurement Systems DVS-1 or DVS-Advantage Dynamic Vapor Sorption analyzer. A typical sample size of 5 to 20 mg was loaded into the DVS instrument sample pan and the sample was analyzed on a DVS automated sorption analyzer at room temperature. The relative humidity (RH) was increased from 0 or 5% to 90 or 95% RH at 5 or 10% RH steps. The RH was then decreased in a similar manner to accomplish a full absorption/desorption cycle. In some cases a second absorption/desorption cycle was performed.

Data set [6] in a line: Phosphate interconversions from polymorph screen (slurries, XRPD). The data set is classed as physicochemical. The following applies: RT, 5 days. From the text: Phosphate Interconversions
[7] abbreviates: fasted, day 1, mean, read-out: AUClast, Day 1 (Fasted).
Where [8] appears, read: fasted, day 1, mean, read-out: Cmax, Day 1 (Fasted).
Setting [9] is: fed, day 9, mean, read-out: AUClast, Day 9 (Fed).
The mark [10] stands for this setting: fed, day 9, mean, read-out: Cmax, Day 9 (Fed).

Where two headings read alike, the source gives them in different places.

Usually Cmax stands for the highest concentration seen after dosing.

Consider `C=CC(=O)Nc1cc(C)ccc1Nc1nc(Nc2cc(OC)ncc2C)ncc1C(F)(F)F` [Compound 1, Form C, N-(2-((2-((2-methoxy-5-methylpyridin-4-yl)amino)-5-(trifluoromethyl)pyrimidin-4-yl)amino)-5-methylphenyl)acrylamide], for which, in data set [1], the “form after slurry (XRPD and DSC)” value was “converted to Form B”. Further, in data set [2] (fasted, day 1, mean), the “AUClast, Day 1 (Fasted)” value is 286 ng·h/mL and the “Cmax, Day 1 (Fasted)” value is given as 98.1 ng/mL. In addition, in data set [2] (fed, day 9, mean), the “AUClast, Day 9 (Fed)” value worked out at 1890 ng·h/mL and the “Cmax, Day 9 (Fed)” value is 293 ng/mL.
As to `C=CC(=O)Nc1cc(C)ccc1Nc1nc(Nc2cc(OC)ncc2C)ncc1C(F)(F)F` [Compound 1, N-(2-((2-((2-methoxy-5-methylpyridin-4-yl)amino)-5-(trifluoromethyl)pyrimidin-4-yl)amino)-5-methylphenyl)acrylamide], the “inhibition of one or both of ERK1 and ERK2 kinases” value in data set [3] is recorded as “covalent, irreversible inhibition”. In data set [4], the “pH at 48 hrs” value is 6.33, the “Conc. (μg/mL) at 24 hours” value came out at 0.07 µg/mL and the “Conc. (μg/mL) at 48 hours” value turned out to be 0.05 µg/mL.
With `C=CC(=O)Nc1cc(C)ccc1Nc1nc(Nc2cc(OC)ncc2C)ncc1C(F)(F)F.O=P(O)(O)O` [Compound 2, Form A], the water uptake result in data set [5] was “Up to 3.8%”. In addition, the AUC(0-t) in data set [2] (setting [7]) was 1080 ng·h/mL; in data set [2] (setting [9]), 3880 ng·h/mL. Moreover, the Cmax was 345 ng/mL in data set [2] (setting [8]) and 790 ng/mL in data set [2] (setting [10]).
In the case of `C=CC(=O)Nc1cc(C)ccc1Nc1nc(Nc2cc(OC)ncc2C)ncc1C(F)(F)F.O=P(O)(O)O` [Compound 2], in data set [4], the “pH at 48 hrs” value was determined as 2.48, the “Conc. (μg/mL) at 24 hours” value amounted to 19.40 µg/mL and the “Conc. (μg/mL) at 48 hours” value turned out to be 91.69 µg/mL.
As to `C=CC(=O)Nc1cc(C)ccc1Nc1nc(Nc2cc(OC)ncc2C)ncc1C(F)(F)F` [Compound 3], the “Conc. (μg/mL) at 24 hours” value in data set [4] turned out to be 113 µg/mL.
Regarding `C=CC(=O)Nc1cc(C)ccc1Nc1nc(Nc2cc(OC)ncc2C)ncc1C(F)(F)F.Cl` [Compound 4, Form A], the AUC(0-t) in data set [2] (setting [7]) was determined as 856 ng·h/mL; in data set [2] (setting [9]), 3350 ng·h/mL. Also, the Cmax in data set [2] (setting [8]) turned out to be 323 ng/mL; in data set [2] (setting [10]), 818 ng/mL.
In the case of `C=CC(=O)Nc1cc(C)ccc1Nc1nc(Nc2cc(OC)ncc2C)ncc1C(F)(F)F.Cl` [Compound 4], in data set [4], the “pH at 48 hrs” value turned out to be 2.29, the “Conc. (μg/mL) at 24 hours” value is 162.33 µg/mL and the “Conc. (μg/mL) at 48 hours” value was found to be 134.08 µg/mL.
With `Br.C=CC(=O)Nc1cc(C)ccc1Nc1nc(Nc2cc(OC)ncc2C)ncc1C(F)(F)F` [Compound 5, Form A], the AUC(0-t) in data set [2] (setting [7]) came to 1680 ng·h/mL; in data set [2] (setting [9]), 5030 ng·h/mL. Besides, the Cmax worked out at 393 ng/mL in data set [2] (setting [8]) and 826 ng/mL in data set [2] (setting [10]).
For `Br.C=CC(=O)Nc1cc(C)ccc1Nc1nc(Nc2cc(OC)ncc2C)ncc1C(F)(F)F` [Compound 5], in data set [4], the “pH at 48 hrs” value amounted to 2.27, the “Conc. (μg/mL) at 24 hours” value was determined as 190.63 µg/mL and the “Conc. (μg/mL) at 48 hours” value was 207.42 µg/mL.
As for `C=CC(=O)Nc1cc(C)ccc1Nc1nc(Nc2cc(OC)ncc2C)ncc1C(F)(F)F` [Compound 6, Form A], in data set [2] (fasted, day 1, mean), the “AUClast, Day 1 (Fasted)” value stood at 1120 ng·h/mL and the “Cmax, Day 1 (Fasted)” value was found to be 364 ng/mL. Also, in data set [2] (fed, day 9, mean), the “AUClast, Day 9 (Fed)” value is 5590 ng·h/mL and the “Cmax, Day 9 (Fed)” value worked out at 740 ng/mL.
In the case of `C=CC(=O)Nc1cc(C)ccc1Nc1nc(Nc2cc(OC)ncc2C)ncc1C(F)(F)F` [Compound 6], in data set [4], the “pH at 48 hrs” value is listed as 1.98, the “Conc. (μg/mL) at 24 hours” value was 560.02 µg/mL and the “Conc. (μg/mL) at 48 hours” value was found to be 409.83 µg/mL.
Consider `C=CC(=O)Nc1cc(C)ccc1Nc1nc(Nc2cc(OC)ncc2C)ncc1C(F)(F)F` [Compound 7], for which the “Conc. (μg/mL) at 24 hours” value in data set [4] came to 1170 µg/mL.
As to `C=CC(=O)Nc1cc(C)ccc1Nc1nc(Nc2cc(OC)ncc2C)ncc1C(F)(F)F.Cc1ccc(S(=O)(=O)O)cc1` [Compound 8], in data set [4], the “pH at 48 hrs” value is recorded as 2.00, the “Conc. (μg/mL) at 24 hours” value was determined as 218.34 µg/mL and the “Conc. (μg/mL) at 48 hours” value stood at 184.83 µg/mL.
`C=CC(=O)Nc1cc(C)ccc1Nc1nc(Nc2cc(OC)ncc2C)ncc1C(F)(F)F.O=S(=O)(O)c1ccccc1` [Compound 9]: in data set [4], the “pH at 48 hrs” value was found to be 2.10, the “Conc. (μg/mL) at 24 hours” value was found to be 173.63 µg/mL and the “Conc. (μg/mL) at 48 hours” value came to 143.49 µg/mL.
In the case of `C=CC(=O)Nc1cc(C)ccc1Nc1nc(Nc2cc(OC)ncc2C)ncc1C(F)(F)F.O=P(O)(O)O` [Form B], the “XRPD Result” value is recorded as “Form A + free base” in data set [6] (slurry in EtOH); “Form A” in data set [6] (slurry in MeCN); “free base (Form D)” in data set [6] (slurry in MeCN/water (1:1)); “free base (Form B)” in data set [6] (slurry in MeOH); “Form A” in data set [6] (slurry in acetone).
